How the values were obtained:
MCF-7 cells [1] = experiment: Cell uptake of [^18F]1 in MCF-7 cells after 21 h pretreatment; type: cell-based, human; settings: MCF-7 cells
Experimental: (§1) The ability of [^18F]1 to bind to MDM2 expressing human tumor cells was assessed using two wild-type p53 cell lines, MCF-7 breast adenocarcinoma, and HepG2 hepatocellular carcinoma. These cell lines have significant MDM2 expression levels and have been utilized previously for assessing potential MDM2 inhibitors, including SP-141 [12, 24, 25]. […] Thus, to examine the uptake and specificity of [^18F]1 by MDM2 expressing tumor cell lines, MCF-7 and HepG2 cells were treated with 0, 1, 5, or 10 µM SP-141 for 21 h, and then assessed for [^18F]1 uptake for 1 h.
(§2) Cell uptake studies of [^18F]1 were conducted using MCF-7 and HepG2 cell lines. Briefly, cells plated in 24-well plates (200,000/well) were treated with varying concentrations of SP-141 (1, 5, or 10 µM) or vehicle for 21 h and incubated with a fresh medium containing [^18F]1 (~18.5 kBq in 0.5 mL medium) for 1 h. Next, the incubation medium was removed, cells were rinsed with cold PBS (3 × 0.5 mL) and lysed using Cell Culture Lysis Reagent (0.25 mL, Promega Corporation, Madison, WI, USA) followed by a rinse with PBS (0.125 mL/well). For each well, the supernatant, PBS washes, and the cell lysate were measured for radioactivity in an automated gamma counter (Wallac Wizard™, Perkin Elmer, Waltham, MA, USA). Subsequently, cell lysates were analyzed for protein concentration using the Bradford assay (Bio-Rad, Hercules, CA, USA). Cell uptake for each well was normalized to its protein content and expressed as % uptake/mg protein. Results are presented as mean ± SD for three wells.

HepG2 cells [2] = experiment: Cell uptake of [^18F]1 in HepG2 cells after 21 h pretreatment; type: cell-based, human; settings: HepG2 cells
Experimental: as §1
as §2, with “Briefly, cells plated in 24-well plates (200,000/well) were treated with varying concentrations of SP-141 (1, 5, or 10 µM) or vehicle for 21 h and incubated with a fresh medium containing [^18F]1 (~18.5 kBq in 0.5 mL medium) for 1 h.” left out

MDM2 gene expression = settings: AML patients, peripheral blasts, after 10 days of treatment; cited from earlier work
MCF-7 cells [3] = experiment: [^18F]1 uptake with or without co-incubated 100 µM SP-141, MCF-7; type: cell-based, human; settings: 100 µM SP-141 co-incubation, 15 min
Experimental: (§3) Because MDM2 is a transcriptional target of p53, stabilization of p53 levels after MDM2 inhibition with SP-141 is expected to cause a temporary increase in MDM2 protein expression via the autoregulatory loop. Thus, we hypothesized that treatment of tumor cells with high concentrations of SP-141 for shorter periods (e.g., <4 h) might induce MDM2 expression as a consequence of p53 activation, whereas low concentrations of SP-141 (≤1 µM) and longer incubation times (≥20 h) appear to promote MDM2 degradation in vitro. To investigate this, MCF-7 and HepG2 cells were incubated with or without 100 µM SP-141 for 15–120 min, and uptake was measured as a percentage input dose for each time point. Hep3B, a p53 null cell line, was used as a negative control. […]
(§4) For these studies, MCF-7 (WT-p53), HepG2 (WT-p53), and Hep3B (p53 null) cells were plated in 24-well plates (20,000/well) and incubated with [^18F]1 (~18.5 kBq in 0.5 mL) with or without 100 µM SP-141 for 15–120 min under standard cell culture conditions. […] The radioactivity in supernatants, wash fractions, and cell lysates was counted for each well using the gamma counter (Wallac Wizard). Cell uptake was calculated as the percentage of the input dose for the two treatment conditions (with/without 100 µM SP-141).

HepG2 cells [4] = experiment: [^18F]1 uptake with or without co-incubated 100 µM SP-141, HepG2; type: cell-based, human; settings: 100 µM SP-141 co-incubation, 15 min
Experimental: as §3, §4

Hep3B cells = experiment: [^18F]1 uptake with or without co-incubated 100 µM SP-141, Hep3B; type: cell-based, human; settings: Hep3B (p53 null) cells, 100 µM SP-141 co-incubation, 15-120 min
Experimental: as §3, §4

MDM2 protein = biological target: MDM2 protein; set-up: method as in PMID 25271708; settings: read-out: Binding affinity (Ki); cited from earlier work
MDM2 = settings: read-out: Binding affinity determined by SPR analysis; cited from earlier work
MCF-7 xenograft = tested on: MCF-7 xenograft; set-up: method as in PMID 25271708, PMID 31832522, PMID 29354330; settings: 40 mg/kg i.p., 5 days a week, cited from earlier work
HepG2 xenograft = tested on: HepG2 xenograft; set-up: method as in PMID 25271708, PMID 31832522, PMID 29354330; settings: 40 mg/kg i.p., 5 days a week, cited from earlier work
MCF-7 cells [5] = tested on: MCF-7 cells; set-up: method as in PMID 25271708, PMID 31832522; settings: 0.5–1.0 µM for 24 h; cited from earlier work
HepG2 cells [6] = tested on: HepG2 cells; set-up: method as in PMID 25271708, PMID 31832522; settings: 0.5–1.0 µM for 24 h; cited from earlier work

With `COc1ccc(C2=N[C@@H](c3ccc(Cl)cc3)[C@@H](c3ccc(Cl)cc3)N2C(=O)N2CCNC(=O)C2)c(OC(C)C)c1` [Nutlin-3, reference compound] as the compound, how does the “Change of [^18F]1 uptake after pretreatment” value (MCF-7 cells [1]; 1 and 5 µM Nutlin-3, 21 h) read?
Its value is “significant increases”.

What about the “Inhibitory effect of pretreatment on [^18F]1 uptake” value (MCF-7 cells [1]; Nutlin-3 1-10 µM for 21 h) of the same compound?
Its value is “did not show any inhibitory effects”.

What about the “Change of [^18F]1 uptake after pretreatment” value (HepG2 cells [2]; 10 µM Nutlin-3, 21 h) of the same compound?
Its value is “significant increases”.

What about the “Inhibitory effect of pretreatment on [^18F]1 uptake” value (HepG2 cells [2]; Nutlin-3 1-10 µM for 21 h) of the same compound?
The value was “did not show any inhibitory effects”.

For `CCOc1cc(C(C)(C)C)ccc1C1=N[C@@](C)(c2ccc(Cl)cc2)[C@@](C)(c2ccc(Cl)cc2)N1C(=O)N1CCN(CCCS(C)(=O)=O)CC1` [RG7112], which “Increase in median MDM2 gene expression levels” value (MDM2 gene expression) is on record?
The value was 2.8 fold.

Which “Decrease of [^18F]1 uptake compared to vehicle-treated cells” value (MCF-7 cells [1]; 1 µM SP-141 for 21 h) does the source give for `COc1ccc2[nH]c3c(-c4cccc5ccccc45)nccc3c2c1` [SP-141, 6-Methoxy-1-(naphthalen-1-yl)-9H-pyrido[3,4-b]indole] here?
Its value is 76%.

And the “Effect of SP-141 pretreatment on [^18F]1 uptake” value (HepG2 cells [2]; 10 µM SP-141 for 21 h)?
The value was “no noticeable effects”.

And the “Increase of [^18F]1 uptake compared to cells incubated with only [^18F]1” value (MCF-7 cells [3])?
Its value is 1.2 fold.

What about the “Increase of [^18F]1 uptake compared to cells incubated with only [^18F]1” value (HepG2 cells [4]) of the same compound?
The value was 1.4 fold.

What about the “Effect of SP-141 on [^18F]1 uptake” value (Hep3B cells) of the same compound?
Its value is “no effect”.

What about the Ki (MDM2 protein) of the same compound?
Its Ki is 28 ± 6 nM.

And the Kd (MDM2)?
Its Kd is 43 nM.

And the Tumor growth (MCF-7 xenograft; after 42 days)?
The Tumor growth was “inhibited tumor growth significantly”.

What about the “MDM2 levels in tumors” value (MCF-7 xenograft) of the same compound?
Its value is “decreased MDM2 levels in tumors”.

What about the Tumor growth (HepG2 xenograft; after 20 days) of the same compound?
The Tumor growth was “inhibited tumor growth significantly”.

What about the “MDM2 levels in tumors” value (HepG2 xenograft) of the same compound?
The value was “decreased MDM2 levels in tumors”.

What about the “Cellular MDM2 levels” value (MCF-7 cells [5]) of the same compound?
Its value is “decreases cellular MDM2 levels”.

What about the “Cellular MDM2 levels” value (HepG2 cells [6]) of the same compound?
The value was “decreases cellular MDM2 levels”.
